# Like-named read-outs stand apart in the source and are kept apart here.
# Biological target: T1, MC4R (Homo sapiens, UniProt P32245)
# T1 construct: expressed in transfected cells; host or cells: HEK (Human Embryonic Kidney) permanent expression cell line HEK MC4R-Luc, co-expressing CRE-luciferase
# Experiment: MCR agonistic activity (luciferase assay / cAMP accumulation assay) on MC4R
# Type: cell-based
# Conditions: HEK cell lines expressing MC4R, not said which
# Experimental: Physiological activity of the compounds of the present invention was assessed by measuring agonistic activity as well as binding activity for melanocortin receptors (MCR) according to methods A and B explained as follows.
# As one of the methods to measure MCR agonistic activity of the compound according to the present invention, the expression level of a marker gene (for example, luciferase) which increases proportionally according to the increase of cAMP content in the cell, was measured.
# First, permanent expression HEK (Human Embryonic Kidney) cell lines (HEK MC1R-Luc, MC3R-Luc, MC4R-Luc or MC5R-Luc) expressing the MCR gene of each subtype together with luciferase gene (CRE-LUC) under the control of CRE (cAMP Response Element) were constructed. The above cell lines were incubated in an incubator with 6% CO2 atmosphere at 37° C. using selection medium, DMEM(Dulbecco's Modified Eagles Medium) containing 10% heat-inactivated fetal bovine serum (Gibco/BRL), 100 unit/ml, penicillin (Gibco/BRL), 100 unit/ml streptomycin (Gibco/BRL), and 200 μg/ml geneticin (G418) (Gibco/BRL). When the cell covered 70% of total surface of the culture dish with 100 mm diameter, the culture dish was rinsed one time with 10 ml Phosphate Buffered Saline(PBS) free of Ca^++ and Mg^++, and then 3 ml PBS solution containing 0.05% trypsin and 0.53 mM EDTA was added thereto. After the trypsin/EDTA solution was removed, the cell lines were incubated in an thermostatic incubator for 1 minute at 37° C., and resuspended in 10 ml selection medium and centrifuged for 5 minutes at 1500 rpm. The supernatant was discarded and the settled cells were resuspended in 5 ml selection medium free of Phenol Red. The resulting cell-suspension was plated onto each well of 96-well culture plates for Luminometer(Costar) with a concentration of 5×10^4 cell in 100 μl culture medium for each well and incubated in the incubator with 6% CO2 atmosphere at 37° C. for 18 hours. With MCR agonists (Example compounds) diluted stepwise using the above culture medium, the cells were treated under the condition of the final DMSO concentration not exceeding 1%, and incubated for 5 hours in the atmosphere of 6% CO2 at 37° C. Then, 50 μl Bright-Glo (Promega) was added to each well. After allowing the treated cells to be at room temperature for 15 minutes, luminescence was measured for each well by using luminometer (Victor). The level of luminescence induced by the stepwise-diluted agonist was converted to relative % value to those by the treatment of 10 nM NDP-MSH. The EC50 indicates the concentration of each agonist for inducing 50% of maximal luminescence by each agonist and this value was measured by a statistical software (Prizm).
# B. cAMP Accumulation Assay
# As another method to measure MCR agonistic activity of the compound according to the present invention, an increase of cAMP amount in the cell was measured.
# First, permanent expression HEK (Human Embryonic Kidney) cell lines (HEK MC1R-Luc, MC3R-Luc, MC4R-Luc or MCSR-Luc) expressing the MCR gene of each subtype were plated onto each well of 24-well culture plates for Luminometer(Costar) with a concentration of 2×10^5 cell in 1 ml culture medium for each well, and then incubated in an incubator with 6% CO2 atmosphere at 37° C. for 24 hours. The medium was removed from each well followed by rinsing with 0.5 ml cold DMEM one time. With MCR agonists (Example compounds) diluted stepwise using 200 μl DMEM including 500 μM IBMX (isobutylmethylxanthine), the cells were treated under the condition of the final DMSO concentration not exceeding 1%, and incubated for 30 minutes in the atmosphere of 6% CO2 at 37° C. Then, the cAMP amount in each cell was measured using Amersham cAMP assay Kit (TRK432).
# More specifically, 14.4 μl of 6M PCA (60%) was added to each well, and allowed to be in ice for 10 minutes, and 200 μl sample was taken from each well and transferred to microcentrifuge tube. […]
# [1] = method A (CRE-luciferase) or B (cAMP accumulation), read-out: EC50 value, agonistic activity to MC4R (range per group of Examples)
# [2] = specific activities of representative compounds, method A or B, read-out: EC50
# T1 sequence (P32245 whole entry, species assumed): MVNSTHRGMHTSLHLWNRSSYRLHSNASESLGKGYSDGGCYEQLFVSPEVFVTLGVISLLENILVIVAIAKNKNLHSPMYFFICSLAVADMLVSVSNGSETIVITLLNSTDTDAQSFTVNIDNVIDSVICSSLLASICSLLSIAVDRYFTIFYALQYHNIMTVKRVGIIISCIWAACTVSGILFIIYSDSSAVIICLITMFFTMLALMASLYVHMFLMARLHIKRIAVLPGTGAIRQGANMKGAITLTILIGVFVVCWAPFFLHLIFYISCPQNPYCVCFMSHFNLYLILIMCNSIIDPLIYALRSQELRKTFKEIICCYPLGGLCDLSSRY
EC50 [1],EC50 [2],Structure (SMILES)
10 to 100 nM,,"CN1CCN(C(=O)[C@@H]2C[C@H](N(C(=O)[C@@H]3CCCO3)[C@H]3CC[C@@H](C)CC3)CN2C(=O)[C@@H]2CN(c3ccccc3)C[C@H]2c2ccc(Cl)cc2)CC1 [Example 46, (2S)-N-{(3S,5S)-1-{[(3S,4R)-4-(4-chlorophenyl)-1-phenylpyrrolidin-3-yl]carbonyl}-5-[(4-methylpiperazin-1-yl)carbonyl]pyrrolidin-3-yl}-N-(cis-4-methylcyclohexyl)tetrahydrofuran-2-carboxamide]"
0.1 to 10 nM,3 nM,"CN1CCN(C(=O)[C@@H]2C[C@H](N(C(=O)[C@@H]3CCCO3)C3CCC(C)(C)CC3)CN2C(=O)[C@@H]2CN(C3CCOCC3)C[C@H]2c2ccc(Cl)cc2)CC1 [Example 41, (2S)-N-{(3S,5S)-1-{[(3S,4R)-4-(4-chlorophenyl)-1-(tetrahydro-2H-pyran-4-yl)pyrrolidin-3-yl]carbonyl}-5-[(4-methylpiperazin-1-yl)carbonyl]pyrrolidin-3-yl}-N-(4,4-dimethylcyclohexyl)tetrahydrofuran-2-carboxamide]"
0.1 to 10 nM,,"CN1CCN(C(=O)[C@@H]2C[C@H](N(C(=O)[C@@H]3CCCO3)[C@H]3CC[C@@H](C)CC3)CN2C(=O)[C@@H]2CN(C(C)(C)C)C[C@H]2c2ccc(F)cc2F)CC1 [Example 21, (2S)-N-{(3S,5S)-1-{[(3S,4R)-1-tert-butyl-4-(2,4-difluorophenyl)pyrrolidin-3-yl]carbonyl}-5-[(4-methylpiperazin-1-yl)carbonyl]pyrrolidin-3-yl}-N-(cis-4-methylcyclohexyl)tetrahydrofuran-2-carboxamide]"
0.1 to 10 nM,,"CN1CCN(C(=O)[C@@H]2C[C@H](N(C(=O)C(C)(C)CO)C3CCC(C)(C)CC3)CN2C(=O)[C@@H]2CN(C3CCOCC3)C[C@H]2c2ccc(Cl)cc2)CC1 [Example 49, N-{(3S,5S)-1-{[(3S,4R)-4-(4-chlorophenyl)-1-(tetrahydro-2H-pyran-4-yl)pyrrolidin-3-yl]carbonyl}-5-[(4-methylpiperazin-1-yl)carbonyl]pyrrolidin-3-yl}-N-(4,4-dimethylcyclohexyl)-3-hydroxy-2,2-dimethylpropanamide]"
100 to 1000 nM,,"CCN1CCN(C(=O)[C@@H]2C[C@H](N(C(C)=O)C3CCC(F)(F)CC3)CN2C(=O)[C@@H]2CN(C(C)(C)C)C[C@H]2c2ccc(Cl)cc2)CC1 [Example 28, N-{(3S,5S)-1-{[(3S,4R)-1-tert-butyl-4-(4-chlorophenyl)pyrrolidin-3-yl]carbonyl}5-[(4-ethylpiperazin-1-yl)carbonyl]pyrrolidin-3-yl}-N-(4,4-difluorocyclohexyl)acetamide]"
0.1 to 10 nM,3 nM,"CN1CCN(C(=O)[C@@H]2C[C@H](N(C(=O)[C@@H]3CCCO3)C3CCC(C)(C)CC3)CN2C(=O)[C@@H]2CN(C(C)(C)C)C[C@H]2c2ccc(Cl)cc2)CC1 [Example 3, (2S)-N-{(3S,5S)-1-{[(3S,4R)-1-tert-butyl-4-(4-chlorophenyl)pyrrolidin-3-yl]carbonyl}-5-[(4-methylpiperazin-1-yl)carbonyl]pyrrolidin-3-yl}-N-(4,4-dimethylcyclohexyl)tetrahydrofuran-2-carboxamide]"

# The next lines start with the compound.
Structure (SMILES),EC50 [1],EC50 [2]
"CC(=O)N(C1CCC(C)(C)CC1)[C@H]1C[C@@H](C(=O)N2CCN(C(C)C)CC2)N(C(=O)[C@@H]2CN(C(C)(C)C)C[C@H]2c2ccc(F)cc2F)C1 [Example 7, N-{(3S,5S)-1-{[(3S,4R)-1-tert-butyl-4-(2,4-difluorophenyl)pyrrolidin-3-yl]carbonyl}-5-[(4-isopropylpiperazin-1-yl)carbonyl]pyrrolidin-3-yl}-N-(4,4-dimethylcyclohexyl)acetamide]",10 to 100 nM,
"CN1CCN(C(=O)[C@@H]2C[C@H](N(C(=O)[C@@H]3CCCO3)[C@H]3CC[C@@H](C)CC3)CN2C(=O)[C@@H]2CN(c3ccc(Cl)nn3)C[C@H]2c2ccc(F)cc2F)CC1 [Example 44, (2S)-N-{(3S,5S)-1-{[(3S,4R)-4-(2,4-difluorophenyl)-1-(6-chloropyridazin-3-yl)pyrrolidin-3-yl]carbonyl}-5-[(4-methylpiperazin-1-yl)carbonyl]pyrrolidin-3-yl}-N-(cis-4-methylcyclohexyl)tetrahydrofuran-2-carboxamide]",10 to 100 nM,
"CN1CCN(C(=O)[C@@H]2C[C@H](N(C(=O)C(C)(C)C)c3ccc(F)cc3F)CN2C(=O)[C@@H]2CN(C(C)(C)C)C[C@H]2c2ccc(F)cc2F)CC1 [Example 82, N-{(3S,5S)-1-{[(3S,4R)-1-tert-butyl-4-(2,4-difluorophenyl)pyrrolidin-3-yl]carbonyl}-5-[(4-methylpiperazin-1-yl)carbonyl]pyrrolidin-3-yl}-N-(2,4-difluorophenyl)-2,2-dimethylpropanamide]",0.1 to 10 nM,
"CC(C)C(=O)N(c1ccc(F)cc1F)[C@H]1C[C@@H](C(=O)N2CCNCC2)N(C(=O)[C@@H]2CN(C(C)(C)C)C[C@H]2c2ccc(Cl)cc2)C1 [Example 78, N-[(3S,5S)-1-{[(3S,4R)-1-tert-butyl-4-(4-chlorophenyl)pyrrolidin-3-yl]carbonyl}-5-(piperazin-1-ylcarbonyl)pyrrolidin-3-yl]-N-(2,4-difluorophenyl)-2-methylpropanamide]",0.1 to 10 nM,
"CCN1CCN(C(=O)[C@@H]2C[C@H](N(C(C)=O)C3CCC(C)(C)CC3)CN2C(=O)[C@@H]2CN(C(C)(C)C)C[C@H]2c2ccc(F)cc2F)CC1 [Example 6, N-{(3S,5S)-1-{[(3S,4R)-1-tert-butyl-4-(2,4-difluorophenyl)pyrrolidin-3-yl]carbonyl}-5-[(4-ethylpiperazin-1-yl)carbonyl]pyrrolidin-3-yl}-N-(4,4-dimethylcyclohexyl)acetamide]",10 to 100 nM,
"CC(=O)N([C@H]1C[C@H](C(=O)N2CCN(C(C)C)CC2)N(C(=O)[C@@H]2CN(C(C)(C)C)C[C@H]2c2ccc(Cl)cc2)C1)[C@H]1CC[C@@H](C)CC1 [Example 39, N-{(3S,5R)-1-{[(3S,4R)-1-tert-butyl-4-(4-chlorophenyl)pyrrolidin-3-yl]carbonyl}-5-[(4-isopropylpiperazin-1-yl)carbonyl]pyrrolidin-3-yl}-N-(cis-4-methylcyclohexyl)acetamide]",0.1 to 10 nM,
"CN1CCN(C(=O)[C@@H]2C[C@H](N(C(=O)C(C)(C)CO)[C@H]3CC[C@@H](C)CC3)CN2C(=O)[C@@H]2CN(C3CC3)C[C@H]2c2ccc(Cl)cc2)CC1 [Example 59, N-{(3S,5S)-1-{[(3S,4R)-4-(4-chlorophenyl)-1-cyclopropylpyrrolidin-3-yl]carbonyl}-5-[(4-methylpiperazin-1-yl)carbonyl]pyrrolidin-3-yl}-N-(cis-4-methylcyclohexyl)-3-hydroxy-2,2-dimethylpropanamide]",0.1 to 10 nM,
CC1CCC(N(C(=O)C2CCCO2)C2CC(C(=O)N3CCN(C)CC3)N(C(=O)C3CN(c4cccnn4)CC3c3ccc(F)cc3F)C2)CC1 (centres unmarked) [Example 66],0.1 to 10 nM,
"CN1CCN(C(=O)[C@@H]2C[C@H](N(C(=O)c3ccoc3)[C@H]3CC[C@@H](C)CC3)CN2C(=O)[C@@H]2CN(C(C)(C)C)C[C@H]2c2ccc(F)cc2F)CC1 [Example 24, N-{(3S,5S)-1-{[(3S,4R)-1-tert-butyl-4-(2,4-difluorophenyl)pyrrolidin-3-yl]carbonyl}-5-[(4-methylpiperazin-1-yl)carbonyl]pyrrolidin-3-yl}-N-(cis-4-methylcyclohexyl)-3-furamide]",0.1 to 10 nM,
